Reference: PubChem BioAssay AID256 (DTP/NCI, 2004)
Where “and” joins values, the source holds several entries; their conditions need not be identical. Identical values can stand only once. Toxic doses and inconclusive results are not listed. Rule for the calls: active = survival T/C of 150% or more; inactive = T/C below 125% in these data.

Tested on: CD2F1 mice, L1210 leukemia ip, survival T/C
Test: NCI In Vivo Anticancer Drug Screen. Data for tumor model L1210 Leukemia (intraperitoneal) in CD2F1 (CDF1) mice
Settings: higher = longer survival
Procedure, shortened: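 Mice carrying a transplanted tumor received test compound or vehicle alone. The value is the measurement in the treated group divided by that in the vehicle-treated control group.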

[1] = endpoint: mean survival time, dose: 100.0 mg/kg/injection, schedule: Q04DX002 (ip), vehicle: saline with Tween-80
[2] = endpoint: mean survival time, dose: 200.0 mg/kg/injection, schedule: Q04DX002 (ip), vehicle: saline with Tween-80
[3] = endpoint: mean survival time, dose: 400.0 mg/kg/injection, schedule: Q04DX002 (ip), vehicle: saline with Tween-80
[4] = endpoint: mean survival time, dose: 100.0 mg/kg/injection, schedule: Q04DX003 (ip), vehicle: saline with Tween-80
[5] = endpoint: mean survival time, dose: 200.0 mg/kg/injection, schedule: Q04DX003 (ip), vehicle: saline with Tween-80

Measured: T/C

O=C(NC1=C(N2CC2)C(=O)C(NC(=O)OCCO)=C(N2CC2)C1=O)OCCO
inactive: endpoint: mean survival time, dose: 0.18 mg/kg/injection, schedule: Q01DX009 (ip), vehicle: saline 109 % of control and 112 % of control | endpoint: mean survival time, dose: 0.39 mg/kg/injection, schedule: Q01DX009 (ip), vehicle: saline 113 % of control and 104 % of control | endpoint: mean survival time, dose: 0.75 mg/kg/injection, schedule: Q01DX009 (ip), vehicle: saline 117 % of control and 120 % of control

CCCc1cc(=O)[nH]c(SCC(=O)O)n1
inactive: [1] 98 % of control | [2] 98 % of control | [3] 92 % of control

Cc1cc(NCCCCCCCCNc2cc(C)nc3cc(N(C)C)ccc23)c2ccc(N(C)C)cc2n1
inactive: endpoint: median survival time, dose: 1.57 mg/kg/injection, schedule: Q01DX009 (ip), vehicle: distilled water + Tween-80 + alcohol 108 % of control | endpoint: median survival time, dose: 3.12 mg/kg/injection, schedule: Q01DX009 (ip), vehicle: distilled water + Tween-80 + alcohol 118 % of control | endpoint: median survival time, dose: 3.12 mg/kg/injection, schedule: Q01DX009 (ip), vehicle: distilled water + Tween-80 115 % of control | endpoint: median survival time, dose: 6.25 mg/kg/injection, schedule: Q01DX009 (ip), vehicle: distilled water + Tween-80 123 % of control | endpoint: median survival time, dose: 12.5 mg/kg/injection, schedule: Q01DX009 (ip), vehicle: distilled water + Tween-80 123 % of control

OCCC(c1ccccc1)(c1ccccc1)c1ccccc1
inactive: endpoint: mean survival time, dose: 6.25 mg/kg/injection, schedule: Q01DX009 (ip), vehicle: saline with Tween-80 113 % of control | endpoint: mean survival time, dose: 12.5 mg/kg/injection, schedule: Q01DX009 (ip), vehicle: saline with Tween-80 108 % of control | endpoint: mean survival time, dose: 25.0 mg/kg/injection, schedule: Q01DX009 (ip), vehicle: saline with Tween-80 100 % of control

O=S1(=O)OC2(CCCCC2)c2ccccc21
inactive: endpoint: mean survival time, dose: 100.0 mg/kg/injection, schedule: Q01DX001 (ip), vehicle: saline with Tween-80 95 % of control | [1] 96 % of control | endpoint: mean survival time, dose: 200.0 mg/kg/injection, schedule: Q01DX001 (ip), vehicle: saline with Tween-80 95 % of control | [2] 90 % of control | endpoint: mean survival time, dose: 400.0 mg/kg/injection, schedule: Q01DX001 (ip), vehicle: saline with Tween-80 100 % of control | [3] 93 % of control

O=[As](O)(O)c1cccc2ccccc12
inactive: endpoint: mean survival time, dose: 1.25 mg/kg/injection, schedule: Q01DX009 (ip), vehicle: saline 90 % of control | endpoint: mean survival time, dose: 2.5 mg/kg/injection, schedule: Q01DX009 (ip), vehicle: saline 111 % of control

COC(=O)C1C(O)C(C)C(O)C(C)/C=C\C=C(C)C(=O)Nc2c(C)c(OC(C)=O)c3c(c2O)C(=O)C(C)=C2OCOC(=C23)C(C)=CC(C)(O)C(O)C(C)C1O (stereo unspecified)
inactive: endpoint: mean survival time, dose: 50.0 mg/kg/injection, schedule: Q04DX003 (ip), vehicle: saline with Tween-80 95 % of control | [4] 98 % of control | [5] 92 % of control

O=[N+]([O-])c1nccn1CC(O)CO (stereo unspecified)
inactive: endpoint: mean survival time, dose: 12.5 mg/kg/injection, schedule: Q01DX009 (ip), vehicle: saline 102 % of control | endpoint: mean survival time, dose: 25.0 mg/kg/injection, schedule: Q01DX009 (ip), vehicle: saline 105 % of control | endpoint: mean survival time, dose: 50.0 mg/kg/injection, schedule: Q01DX009 (ip), vehicle: saline 102 % of control | endpoint: mean survival time, dose: 100.0 mg/kg/injection, schedule: Q01DX009 (ip), vehicle: saline 101 % of control | endpoint: mean survival time, dose: 200.0 mg/kg/injection, schedule: Q01DX009 (ip), vehicle: saline 102 % of control | endpoint: mean survival time, dose: 400.0 mg/kg/injection, schedule: Q01DX009 (ip), vehicle: saline 103 % of control

O=c1[nH]cnc2nc(SCc3ccc([N+](=O)[O-])cc3)[nH]c12
inactive: endpoint: mean survival time, dose: 50.0 mg/kg/injection, schedule: Q01DX009 (ip), vehicle: Klucel (hydroxypropylcellulose) (HPC) 90 % of control | endpoint: mean survival time, dose: 100.0 mg/kg/injection, schedule: Q01DX009 (ip), vehicle: Klucel (hydroxypropylcellulose) (HPC) 94 % of control | endpoint: mean survival time, dose: 200.0 mg/kg/injection, schedule: Q01DX009 (ip), vehicle: Klucel (hydroxypropylcellulose) (HPC) 105 % of control

CC1=CCC(c2ccccc2)NC(=O)C1 (stereo unspecified)
inactive: [1] 96 % of control | [2] 104 % of control | [3] 104 % of control

Nc1ccc2c(Cl)cc(Cl)cc2c1
inactive: endpoint: mean survival time, dose: 50.0 mg/kg/injection, schedule: Q01DX009 (ip), vehicle: saline with Tween-80 102 % of control | endpoint: mean survival time, dose: 100.0 mg/kg/injection, schedule: Q01DX009 (ip), vehicle: saline with Tween-80 103 % of control | [4] 98 % of control | endpoint: mean survival time, dose: 200.0 mg/kg/injection, schedule: Q01DX009 (ip), vehicle: saline with Tween-80 96 % of control | [5] 91 % of control

NC(N)=N/N=C/c1cc(Br)ccc1O
inactive: endpoint: mean survival time, dose: 37.5 mg/kg/injection, schedule: Q01DX009 (ip), vehicle: saline 105 % of control | endpoint: mean survival time, dose: 37.5 mg/kg/injection, schedule: Q04DX003 (ip), vehicle: saline 110 % of control | endpoint: mean survival time, dose: 75.0 mg/kg/injection, schedule: Q04DX003 (ip), vehicle: saline 114 % of control | endpoint: mean survival time, dose: 150.0 mg/kg/injection, schedule: Q04DX003 (ip), vehicle: saline 108 % of control
